Where two headings read alike, the source gives them in different places.
What was measured:
[1] = test system: uropathogenic E. coli strain UTI89; experiment: MIC of ciprofloxacin; assay type: cell-based, Escherichia coli
[2] = test system: UMUC-3 bladder cancer cells; experiment: Cancer cell viability in clusters co-cultured with UTI89 (CT and CL models), Calcein-AM/Hoechst; doxorubicin dose-response; assay type: cell-based, human; settings: for IC50: Homo sapiens, UMUC3, MOI 1:1, concentration giving 50% cell viability
Procedure: For CT models, bacterial suspension was centrifuged for 10,000 rpm for 5 min, and the supernatant was removed and replaced with MEM-α (10% supplemented with FBS, no added penicillin-streptomycin) at final dilutions at the rate of 500:1, 100:1, and 1:1 (bacteria:cell). After seeding and incubating for 24 h, the UMUC-3 cell clusters in the microchannels were stained using Hoechst dye for 30 minutes at 37° C. before infection. After original media with dye in channels was gently removed, the diluted bacterial suspension was added into 9 channels separately, three channels per concentration. The corresponding control group of the two models was obtained at time points before the introduction of bacteria.
As for CL models, bacteria suspended in MEM a and UMUC-3 cells (no added penicillin-streptomycin) were mixed before seeding at the rate of 500:1, 100:1, and 1:1. The device was incubated at 37° C. with 5% CO2 and in situ imaging and analyzing at 1 h, 9 h, and 24 h, respectively. Besides, an isolated channel only with 24 h cultured UMUC-3 was set as a negative control to indicate the beginning of the infection.
For fluorescent staining analysis, the nuclear dye Hoechst (Life Technologies) and Calcein-AM (Invitrogen) were added into cell suspension in the channel at dilution of 1:1000 (v/v). After incubating for 30 minutes at 37° C. for staining, the media was gently removed from each channel, and the device could be imaged via Nikon Ci-L fluorescent microscope directly at 10× magnification. The images processing and cell counting under fluorescent staining were done through ImageJ software. For infection analysis imaging, after incubating for 30 minutes with fluorescent dyes and remove the mixture of dyes and media in the channel, the channels were washed with 1×PBS to remove unbound bacteria and treated with 100 μg/mL gentamicin for 2 h to kill the extracellular bacteria, then the device could be imaged directly. […]

[3] = test system: UMUC-3 bladder cancer cells; experiment: In situ immunostaining of CD44 and CD24 after DNase treatment; assay type: cell-based, human; settings: CT model, 9 h after infection
Procedure: The infected cell clusters were firstly washed with 1×PBS gently and treated with 100 μg/mL gentamicin for 2 h to kill extracellular bacteria but keep the intracellular ones. Then channels were loaded PBS with antibody dyes at dilution of […] (v/v). After incubating for 30 minutes at room temperature for staining, the PBS was gently removed from each channel, and the stained clusters could be directly observed through a fluorescent microscope.
(§1) To dissolve the biofilm, 1×DNase (0.01 mg/mL; Sigma-Aldrich) diluted with fresh antibiotic-free culture media were added into channels after 1 h infection, and the device was continually incubated at 37° C. for 8 h. Then downstream in situ analysis was done after removing DNase and washing channels with PBS. The untreated clusters after 9 h infection were set as control.

[4] = test system: UMUC-3 bladder cancer cells; experiment: Viability of non-infected cancer cells after DNase or Cipro treatment; assay type: cell-based, human; settings: uninfected control; Cipro 24 h
[5] = test system: UMUC-3 bladder cancer cells; experiment: Cluster size after DNase treatment of coculture (in situ morphology analysis); assay type: cell-based, human; settings: 0.01 mg/mL DNase, 9 h of infection
Procedure: The clusters formed in the microwell after 24 h culture or infection were imaged via an optical microscope by the device put on the objective directly at 40× or 100× magnification. Each channel was shot at three frames at the top, middle and bottom state. The image processing and analysis of cluster size and density were done through ImageJ software.
as §1

O=C(O)c1cn(C2CC2)c2cc(N3CCNCC3)c(F)cc2c1=O [ciprofloxacin]
MIC ([1]; Escherichia coli, as printed in Example 7): 0.025 µg/mL
MIC value ([1]; as printed in legend of FIG. 14C): 0.025 µg/mL

COc1cccc2c1C(=O)c1c(O)c3c(c(O)c1C2=O)C[C@@](O)(C(=O)CO)C[C@@H]3O[C@H]1C[C@H](N)[C@H](O)[C@H](C)O1 [doxorubicin]
IC50 ([2]; CL model (intratumoral UTI89), read-out: IC50 of doxorubicin on cancer cells with the CL model): 1590 nM
IC50 ([2]; CT model (extratumoral UTI89), read-out: IC50 of doxorubicin on cancer cells with the CT model): 1790 nM

DNase
expression intensity of CD24, DNase-treated vs untreated control [3]: reduced
expression intensity of CD44, DNase-treated vs untreated control [3]: reduced
adverse effect on non-infected cancer cells (viability) [4]: neither ciprofloxacin nor DNase had adverse effect
cancer cell viability in the CT model after biofilm disruption by DNase ([2]; CT model, 9 h infection, more obvious at MOIs 100:1 and 500:1): increased to a level comparable to that in the CL model
cluster size in the CL model after DNase treatment ([5]; CL model): slight increase in cluster size
cluster size in the CT model after DNase treatment ([5]; CT model): reverse the effect of cluster size reduction
